Measurements reported in ChEMBL document CHEMBL1127275, “Peptide based P21RAS farnesyl transferase inhibitors: systematic modification of the tetrapeptide CA1A2X motif” (Bioorg Med Chem Lett, 1994).

Target: Protein farnesyltransferase (Rattus norvegicus, UniProt Q02293+Q04631)
Test: In vitro inhibitory concentration evaluated against P21ras Farnesyl transferase
Type: protein-complex assay

CSCC[C@H](NC(=O)[C@H](Cc1ccccc1)NC(=O)[C@H](C(C)C)N(C)C(=O)[C@@H](N)CS)C(=O)O
IC50: 0.25 µM

CSCC[C@H](NC(=O)[C@H](CCc1ccccc1)NC(=O)[C@@H](NC(=O)[C@@H](N)CS)C(C)C)C(=O)O
IC50: 0.12 µM

CSCC[C@H](NC(=O)[C@@H](NC(=O)[C@@H](NC(=O)[C@@H](N)CS)C(C)C)c1ccccc1)C(=O)O
IC50: 0.696 µM

CSCC[C@H](NC(=O)[C@@H](NC(=O)[C@@H](NC(=O)[C@@H](N)CS)C(C)C)C(C)C)C(=O)O
IC50: 0.068 µM

CSCC[C@H](NC(=O)[C@H](Cc1ccccc1)N(C)C(=O)[C@@H](NC(=O)[C@@H](N)CS)C(C)C)C(=O)O
IC50: 0.36 µM

CSCC[C@H](NC(=O)[C@H](Cc1ccccc1)NC(=O)[C@@H](NC(=O)C[C@H](N)CS)C(C)C)C(=O)O
IC50: 1.8 µM

CSCC[C@@H](C(=O)O)N(C)C(=O)[C@H](Cc1ccccc1)NC(=O)[C@@H](NC(=O)[C@@H](N)CS)C(C)C
IC50: 1.4 µM

CSCC[C@H](NC(=O)[C@H](Cc1ccccc1)NC(=O)C1(NC(=O)[C@@H](N)CS)CCCCC1)C(=O)O
IC50: 1.2 µM

CSCC[C@H](NC(=O)[C@H](Cc1ccccc1)NC(=O)[C@@H](NC[C@@H](N)CS)C(C)C)C(=O)O
IC50: 0.012 µM

CSCC[C@H](NC(=O)[C@H](Cc1ccccc1)NC(=O)C(C)(C)NC(=O)[C@@H](N)CS)C(=O)O
IC50: 0.4 µM

CSCC[C@H](NC(=O)[C@H](Cc1ccc2ccccc2c1)NC(=O)[C@@H](NC(=O)[C@@H](N)CS)C(C)C)C(=O)O
IC50: 0.012 µM

CSCC[C@H](NC(=O)[C@H](Cc1ccccc1)NC(=O)[C@@H](NC(=O)[C@@H](N)CCS)C(C)C)C(=O)O (stereo in doubt; form 2)
IC50: 2.7 µM

CN[C@@H](CS)C(=O)N[C@H](C(=O)N[C@@H](Cc1ccccc1)C(=O)N[C@@H](CCSC)C(=O)O)C(C)C
IC50: 0.42 µM

CSCC[C@H](NC(=O)[C@H](Cc1ccccc1)NC(=O)[C@@H](NC(=O)[C@@H](N)CC(=O)O)C(C)C)C(=O)O
IC50: 250 µM

CSCC[C@H](NC(=O)[C@H](Cc1c[nH]c2ccccc12)NC(=O)[C@@H](NC(=O)[C@@H](N)CS)C(C)C)C(=O)O
IC50: 0.014 µM

CSCC[C@H](NC(=O)[C@H](Cc1ccccc1)NC(=O)[C@@H](NC(=O)[C@@H](N)CCS)C(C)C)C(=O)O (stereo in doubt; form 1)
IC50: 0.51 µM

CSCC[C@H](NC(=O)[C@H](Cc1ccccc1)NC(=O)[C@@H](NC(=O)[C@@H](N)CCC(=O)O)C(C)C)C(=O)O
IC50: 120 µM

CSCC[C@H](NC(=O)[C@H](Cc1ccccc1)NC[C@@H](NC(=O)[C@@H](N)CS)C(C)C)C(=O)O
IC50: 0.126 µM

CCCC[C@H](NC(=O)[C@H](Cc1ccccc1)NC(=O)[C@@H](NC(=O)[C@@H](N)CS)C(C)C)C(=O)O
IC50: 0.95 µM

CSCC[C@H](NC(=O)[C@@H](NC(=O)[C@@H](NC[C@@H](N)CS)C(C)C)C(C)C)C(=O)O
IC50: 0.029 µM

CC(C)[C@H](NC(=O)[C@@H](N)CS)C(=O)N[C@@H](Cc1ccccc1)C(=O)N[C@@H](Cc1ccccc1)C(=O)O
IC50: 0.4 µM

CSCC[C@H](NC(=S)[C@H](Cc1ccccc1)NC(=O)[C@@H](NC(=O)[C@@H](N)CS)C(C)C)C(=O)O
IC50: 0.017 µM

CSCC[C@H](NC(=O)[C@H](Cc1ccccc1)NC(=O)[C@H](C)NC(=O)[C@@H](N)CS)C(=O)O
IC50: 0.241 µM

CSCC[C@H](NC(=O)[C@H](Cc1ccccc1)NC(=O)[C@@H](NC(=O)[C@@H](N)Cc1cnc[nH]1)C(C)C)C(=O)O
IC50: 6.8 µM
